Patent US6372926B1, “17-side chain alkynyl-and 20-oxopregna-derivatives of vitamin D, methods for their production and pharmaceutical compositions thereof” (Research Institute for Medicine and Chemistry, priority 1997, dated 2002)

Legend:
glutocorticoid receptor = biological target: T1, glutocorticoid receptor (Homo sapiens, UniProt P04150); conditions: in contrast to RU 486; literature report; cited from earlier work
T1 sequence (P04150 1-777): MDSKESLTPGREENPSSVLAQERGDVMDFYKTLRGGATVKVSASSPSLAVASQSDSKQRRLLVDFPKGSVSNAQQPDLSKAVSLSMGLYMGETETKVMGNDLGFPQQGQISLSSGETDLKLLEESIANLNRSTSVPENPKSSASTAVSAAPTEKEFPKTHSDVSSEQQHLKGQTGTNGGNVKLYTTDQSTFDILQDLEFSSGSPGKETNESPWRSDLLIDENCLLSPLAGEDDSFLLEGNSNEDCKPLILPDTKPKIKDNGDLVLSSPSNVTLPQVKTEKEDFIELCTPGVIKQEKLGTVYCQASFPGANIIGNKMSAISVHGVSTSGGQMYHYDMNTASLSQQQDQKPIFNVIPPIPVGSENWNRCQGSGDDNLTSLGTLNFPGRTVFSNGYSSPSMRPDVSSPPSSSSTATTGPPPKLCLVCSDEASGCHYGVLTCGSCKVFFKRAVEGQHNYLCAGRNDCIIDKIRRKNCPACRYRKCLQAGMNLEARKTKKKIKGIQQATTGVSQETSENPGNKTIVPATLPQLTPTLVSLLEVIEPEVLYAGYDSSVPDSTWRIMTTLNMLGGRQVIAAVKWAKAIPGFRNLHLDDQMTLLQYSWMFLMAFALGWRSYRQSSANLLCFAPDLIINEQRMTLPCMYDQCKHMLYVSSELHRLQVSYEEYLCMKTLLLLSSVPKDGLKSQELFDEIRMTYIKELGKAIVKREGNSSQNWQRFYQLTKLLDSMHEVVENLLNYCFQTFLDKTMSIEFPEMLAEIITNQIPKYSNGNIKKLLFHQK

[1] = system: human breast cancer cells (T47D); conditions: Endocrine Society 1994 Abstract No. 1744; cited from earlier work
progesterone activity = assay: anti-progesterone activity (applicant's finding); conditions: evidenced by antifertility activity, anti-progesterone assay and inhibition of growth of T47D and MCF-7 cell lines; no data given
progesterone receptor = biological target: T2, progesterone receptor (Homo sapiens, UniProt P06401); conditions: as reported by DeLuca and coworkers; cited from earlier work
T2 sequence (P06401 1-933): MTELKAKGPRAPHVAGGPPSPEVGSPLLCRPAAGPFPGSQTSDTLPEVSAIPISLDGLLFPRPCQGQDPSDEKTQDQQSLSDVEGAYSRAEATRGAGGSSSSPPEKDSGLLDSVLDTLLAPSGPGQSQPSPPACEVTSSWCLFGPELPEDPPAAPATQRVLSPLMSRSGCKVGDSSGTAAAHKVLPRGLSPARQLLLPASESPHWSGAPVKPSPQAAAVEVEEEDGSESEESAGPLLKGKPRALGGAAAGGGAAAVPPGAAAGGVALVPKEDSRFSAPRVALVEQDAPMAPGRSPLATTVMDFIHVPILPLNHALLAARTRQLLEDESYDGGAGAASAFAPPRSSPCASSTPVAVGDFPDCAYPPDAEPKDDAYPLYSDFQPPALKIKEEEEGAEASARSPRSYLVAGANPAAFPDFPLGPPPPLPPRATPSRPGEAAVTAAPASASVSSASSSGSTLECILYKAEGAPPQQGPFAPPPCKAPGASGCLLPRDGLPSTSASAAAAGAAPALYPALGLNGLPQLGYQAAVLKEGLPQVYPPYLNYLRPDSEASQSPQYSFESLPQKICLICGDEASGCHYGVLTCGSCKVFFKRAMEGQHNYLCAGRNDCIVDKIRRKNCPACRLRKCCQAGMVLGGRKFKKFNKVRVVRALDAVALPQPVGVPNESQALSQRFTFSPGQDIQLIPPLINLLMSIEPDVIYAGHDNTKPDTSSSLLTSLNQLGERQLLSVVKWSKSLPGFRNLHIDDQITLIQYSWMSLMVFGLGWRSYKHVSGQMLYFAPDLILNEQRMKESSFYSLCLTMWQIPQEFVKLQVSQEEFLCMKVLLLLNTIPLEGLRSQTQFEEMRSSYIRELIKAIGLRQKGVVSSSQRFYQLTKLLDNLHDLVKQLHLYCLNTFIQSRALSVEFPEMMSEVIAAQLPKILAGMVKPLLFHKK

For C=C1CC[C@H](O)C/C1=C/C=C1\CCC[C@@]2(C)[C@@H](C(C)=O)CC[C@H]12 [20-oxopregnacalciferol], the “binding to the glucocorticoid receptor” value (glutocorticoid receptor) is given as “not to bind” and the “suppression of in vitro growth of human breast cancer cells (T47D)” value [1] is given as “suppress in vitro growth”.

For C=C1C(=CC=C2CCCC3(C)C(C(C)=O)CCC23)CC(O)CC1O (stereo not drawn) [1α-Hydroxy-20-oxopregna-calciferol, 1α,3β-Dihydroxy-20-oxo-9,10-secopregna-5(Z),7,10(19)-triene], the “antagonism of progesterone activity” value (progesterone activity) is given as “anti-progestational activity” and the “ability to bind to the progesterone receptor” value (progesterone receptor) is given as “not to have such binding effect”.
